Reference: US11292821B2, “Peptides and combination of peptides for use in immunotherapy against lung cancer, including NSCLC, SCLC and other cancers” (Immatics Biotechnologies GmbH, priority 2017, dated 2022)

Tested on: HLA-A*01
Test: MHC binding assay (UV-ligand exchange, β2m ELISA)
Design: species or system human
Excerpt: Candidate peptides for T cell based therapies according to the present invention were further tested for their MHC binding capacity (affinity). The individual peptide-MHC complexes were produced by UV-ligand exchange, where a UV-sensitive peptide is cleaved upon UV-irradiation, and exchanged with the peptide of interest as analyzed. Only peptide candidates that can effectively bind and stabilize the peptide-receptive MHC molecules prevent dissociation of the MHC complexes. To determine the yield of the exchange reaction, an ELISA was performed based on the detection of the light chain (β2m) of stabilized MHC complexes. The assay was performed as generally described in Rodenko et al. (Rodenko et al., 2006).
96 well MAXISorp plates (NUNC) were coated over night with 2 ug/ml streptavidin in PBS at room temperature, washed 4× and blocked for 1 h at 37° C. in 2% BSA containing blocking buffer. […] Peptide-MHC monomers of the UV-exchange reaction were diluted 100-fold in blocking buffer. Samples were incubated for 1 h at 37° C., washed four times, incubated with 2 ug/ml HRP conjugated anti-β2m for 1h at 37° C., washed again and detected with TMB solution that is stopped with […]. Absorption was measured at 450 nm. Candidate peptides that show a high exchange yield (preferably higher than 50%, most preferred higher than 75%) are generally preferred for a generation and production of antibodies or fragments thereof, and/or T cell receptors or fragments thereof, as they show sufficient avidity to the MHC molecules and prevent dissociation of the MHC complexes.

| Substance | Peptide exchange (peptide exchange yield, MHC class I binding score) |
| --- | --- |
| 172 (RTDSCSSAQAQY; listed as Homo sapiens) [compound 172] | “+++” (>50 = +++) |
| 176 (SRTINVSNLY; listed as Homo sapiens) [compound 176] | “+++” (>50 = +++) |
| 178 (SSDSSTLPKL; listed as Homo sapiens) [compound 178] | “++” (>20% = ++) |
| 180 (STDPWIQMAY; listed as Homo sapiens) [compound 180] | “++++” (>75% = ++++) |
| 182 (TDYHVRVY; listed as Homo sapiens) [compound 182] | “+++” (>50 = +++) |
| 183 (TLEDIATSHLY; listed as Homo sapiens) [compound 183] | “++++” (>75% = ++++) |
| 184 (TSAHPEDSSFY; listed as Homo sapiens) [compound 184] | “+++” (>50 = +++) |
| 186 (TTDIIEKY; listed as Homo sapiens) [compound 186] | “+++” (>50 = +++) |
| 188 (VSDAKLDKY; listed as Homo sapiens) [compound 188] | “+++” (>50 = +++) |
| 200 (YSDEDVTKY; listed as Homo sapiens) [compound 200] | “++++” (>75% = ++++) |
| 394 (ASEAEMRLFY; listed as Homo sapiens) [compound 394] | “++++” (>75% = ++++) |
| 400 (ATDISRQNEY; listed as Homo sapiens) [compound 400] | “+++” (>50 = +++) |
| 406 (ETEQTKFWDY; listed as Homo sapiens) [compound 406] | “++++” (>75% = ++++) |
| 407 (FSDNDKLYLY; listed as Homo sapiens) [compound 407] | “++++” (>75% = ++++) |
| 408 (FTEQWTDGY; listed as Homo sapiens) [compound 408] | “+++” (>50 = +++) |
| 409 (FVDPLVTNY; listed as Homo sapiens) [compound 409] | “++++” (>75% = ++++) |

| Substance | Peptide exchange (peptide exchange yield, MHC class I binding score) |
| --- | --- |
| 411 (GTVYEDLRY; listed as Homo sapiens) [compound 411] | “++++” (>75% = ++++) |
| 413 (ISDRYYTALY; listed as Homo sapiens) [compound 413] | “++++” (>75% = ++++) |
| 414 (KTDESLTKY; listed as Homo sapiens) [compound 414] | “+++” (>50 = +++) |
| 416 (LLDTAQKNLY; listed as Homo sapiens) [compound 416] | “++++” (>75% = ++++) |
| 418 (LSDPSGPKSY; listed as Homo sapiens) [compound 418] | “+++” (>50 = +++) |
| 420 (LTEDKETLQY; listed as Homo sapiens) [compound 420] | “++++” (>75% = ++++) |
| 421 (LTELLERAAFY; listed as Homo sapiens) [compound 421] | “++++” (>75% = ++++) |
| 422 (MIDVTKSYY; listed as Homo sapiens) [compound 422] | “++++” (>75% = ++++) |
| 425 (NLDIIQQEY; listed as Homo sapiens) [compound 425] | “++++” (>75% = ++++) |
| 429 (NTEDSSMSGYLY; listed as Homo sapiens) [compound 429] | “++++” (>75% = ++++) |
| 431 (NTSDMMGRMSY; listed as Homo sapiens) [compound 431] | “++++” (>75% = ++++) |
| 432 (NVDPVQHTY; listed as Homo sapiens) [compound 432] | “+++” (>50 = +++) |
| 433 (QIDTGENLY; listed as Homo sapiens) [compound 433] | “++++” (>75% = ++++) |
| 434 (QTDCAPNNGY; listed as Homo sapiens) [compound 434] | “++++” (>75% = ++++) |
| 437 (STDGKHWWEY; listed as Homo sapiens) [compound 437] | “++++” (>75% = ++++) |
| 438 (STDNFNCKY; listed as Homo sapiens) [compound 438] | “+++” (>50 = +++) |

Now from value to substance:

| Peptide exchange (peptide exchange yield, MHC class I binding score) | Substance |
| --- | --- |
| “++++” (>75% = ++++) | 177 (SSDEVNFLVY; listed as Homo sapiens) [compound 177] |
| “++++” (>75% = ++++) | 179 (STAKSATWTY; listed as Homo sapiens) [compound 179] |
| “+++” (>50 = +++) | 181 (TADGKTYYY; listed as Homo sapiens) [compound 181] |
| “+++” (>50 = +++) | 190 (VTDGINPLIDRY; listed as Homo sapiens) [compound 190] |
| “++++” (>75% = ++++) | 191 (VTDGSLYEGVAY; listed as Homo sapiens) [compound 191] |
| “++++” (>75% = ++++) | 192 (VTEESFDSKFY; listed as Homo sapiens) [compound 192] |
| “+” (>10% = +) | 194 (VVADTKMIEY; listed as Homo sapiens) [compound 194] |
| “++++” (>75% = ++++) | 195 (VVDSVGGYLY; listed as Homo sapiens) [compound 195] |
| “+” (>10% = +) | 196 (WMFFVINY; listed as Homo sapiens) [compound 196] |
| “+++” (>50 = +++) | 197 (YADTVRPEFY; listed as Homo sapiens) [compound 197] |
| “++++” (>75% = ++++) | 198 (YLDPVQRDLY; listed as Homo sapiens) [compound 198] |
| “++” (>20% = ++) | 199 (YLPQHTIETY; listed as Homo sapiens) [compound 199] |
| “++++” (>75% = ++++) | 396 (ASEFGNHYLY; listed as Homo sapiens) [compound 396] |
| “++++” (>75% = ++++) | 397 (ASEITSKGASLY; listed as Homo sapiens) [compound 397] |
| “++++” (>75% = ++++) | 399 (ATDIPCLLY; listed as Homo sapiens) [compound 399] |
| “++++” (>75% = ++++) | 401 (DSDESYMEKSLY; listed as Homo sapiens) [compound 401] |
| “+++” (>50 = +++) | 402 (DTDSQRLAY; listed as Homo sapiens) [compound 402] |
| “+++” (>50 = +++) | 403 (ELDSKVEVLTY; listed as Homo sapiens) [compound 403] |
| “++++” (>75% = ++++) | 404 (ETARKFLYY; listed as Homo sapiens) [compound 404] |
| “++++” (>75% = ++++) | 410 (GSDHQSPSSSSY; listed as Homo sapiens) [compound 410] |
| “++++” (>75% = ++++) | 412 (ILDEVIMGY; listed as Homo sapiens) [compound 412] |
| “+++” (>50 = +++) | 415 (LLDPRSYHTY; listed as Homo sapiens) [compound 415] |
| “++++” (>75% = ++++) | 417 (LLEDKHFQSY; listed as Homo sapiens) [compound 417] |
| “++++” (>75% = ++++) | 419 (LSELKPMSY; listed as Homo sapiens) [compound 419] |
| “++++” (>75% = ++++) | 423 (NLDAVHDITVAY; listed as Homo sapiens) [compound 423] |
| “+++” (>50 = +++) | 424 (NLDEEKQLLY; listed as Homo sapiens) [compound 424] |
| “+++” (>50 = +++) | 426 (NLDQATRVAY; listed as Homo sapiens) [compound 426] |
| “++++” (>75% = ++++) | 427 (NSDEQKITEMVY; listed as Homo sapiens) [compound 427] |
| “++++” (>75% = ++++) | 428 (NSELSCQLY; listed as Homo sapiens) [compound 428] |
| “++++” (>75% = ++++) | 435 (QTDDTWRTEY; listed as Homo sapiens) [compound 435] |
